Data on twelve compounds can be found in patent US8759355B2, “Aryl pyrimidine derivatives, preparation methods and pharmaceutical uses thereof” (Institute of Pharmacology and Toxicology Academy of …, priority 2008, dated 2014).

One data set addresses T1, human PPARδ (Homo sapiens, UniProt Q03181).
T1 construct: expressed in transfected cells; host or cells: HEK-293 cells (transient co-transfection)
T1 sequence (Q03181 211-439 limits assumed): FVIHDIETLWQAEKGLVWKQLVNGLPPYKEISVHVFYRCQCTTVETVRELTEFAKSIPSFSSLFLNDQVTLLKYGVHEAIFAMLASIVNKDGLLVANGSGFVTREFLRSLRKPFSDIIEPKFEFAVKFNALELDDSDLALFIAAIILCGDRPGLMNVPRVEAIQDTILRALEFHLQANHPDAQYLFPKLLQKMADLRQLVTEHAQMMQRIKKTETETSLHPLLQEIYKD
As to the kind of experiment: Transfection determination: pM-hPPARδ/GAL4 chimeric receptor luciferase reporter, transient transfection in HEK-293 cells. Type of data set: cell-based. As to conditions: 1 μM, luciferase read 24 hours after administration, GW501516 positive control. The text has this: Transfection Determination
The functional titration of the transient transfection of the compounds in HEK-293 cells was screened to determine their ability to activate PPAR subtype. Chimeric acceptor system was built in advance to compare relative transcription activity of acceptor subtype to same target gene and prevent the complexness of endogenous acceptor activation due to the explanation of results. Ligand binding domain of human PPARδ was fused to yeast transcription factor GAL4DNA binding domain, and then linked to expression carrier pM of mammal to build pM-hPPARδ/GAL4 plasmids. GAL4DNA binding region was connected to pB4-tk-luc to pB4-RES-tk-luc (a report gene of firefly luciferin enzyme containing 5 templates of GAL4DNA binding site). pRL-CMV-Rluc was used as internal standard to correct transfection efficiency and endogenous influence and reduce experimental error.
HEK-293 cells were grown in 48 wells plate, the density of cells was 2-4×10^4/well. The culture medium was 1640 of 10% defatted FCS free of phenol red and antibiotics. After 48 hours, the culture medium was changed as 1640 of 5% defatted FCS free of phenol red and antibiotics, and then pM-hPPARδ/GAL4, pB4-RES-tk-luc and pRL-CMV-Rluc plasmids were co-transfected in HEK-293 cells. The drug was administered after 24 hours, and the luminous intensity of luciferin enzyme was determined 24 hours after administration. The control was 0.2% DMSO.

On to `O=C(O)CCc1ccc(OCc2ccnc(-c3c(F)cc(F)cc3F)n2)cc1` [Example 5, 3-{4-[2-(2,4,6-trifluorophenyl)-pyrimidin-4-yl-methoxy]-phenyl}-propionic acid], for which the melting point (in general, the temperature of the solid-liquid transition) lay in the range of 143.8 to 144.1 °C. As for “2-methyl-2-{2-methyl-4-[2-(4-trichloromethylphenyl)-pyrimidin-4-yl-methylthio]-phenoxy}-propionic acid [example 20]”, the “Activation ability % (Activation of part of compounds for PPARδ)” value on human PPARδ was determined as 144.86%.

For `Cc1cc(SCc2ccnc(-c3ccc(F)cc3)n2)ccc1OC(C)(C)C(=O)O` [example 18, 2-methyl-2-{2-methyl-4-[2-(4-fluorophenyl)-pyrimidin-4-yl-methylthio]-phenoxy}-propionic acid], the melting point was in the range of 139.5 to 140.4 °C. Besides, the “Activation ability % (Activation of part of compounds for PPARδ)” value on human PPARδ is 103.26%.

`O=C(O)CCc1ccc(OCc2ccnc(-c3ccc(C(F)(F)F)cc3)n2)cc1` [Example 4, 3-{4-[2-(4-trifluoromethylphenyl)-pyrimidin-4-yl-methoxy]-phenyl}-propionic acid] returned a melting point of 146.6 to 147.5 °C.

Consider `Cc1cc(SCc2ccnc(-c3ccc(Cl)cc3)n2)ccc1OCC(=O)O` [example 9, {2-methyl-4-[2-(4-chlorophenyl)-pyrimidin-4-yl-methylthio]-phenoxy}-acetic acid], for which, at human PPARδ, the “Activation ability % (Activation of part of compounds for PPARδ)” value stood at 88.35%.

As for `O=C(O)CCc1ccc(OCc2ccnc(-c3ccc(Cl)cc3)n2)cc1` [Example 2, 3-{4-[2-(4-chlorophenyl)-pyrimidin-4-yl-methoxy]-phenyl}-propionic acid], the melting point was in the range of 168.3 to 169.4 °C. With `Cc1cc(SCc2ccnc(-c3ccc(Br)cc3)n2)ccc1OCC(=O)O` [example 10, {2-methyl-4-[2-(4-bromophenyl)-pyrimidin-4-yl-methylthio]-phenoxy}-acetic acid], on human PPARδ, the “Activation ability % (Activation of part of compounds for PPARδ)” value is reported as 108.55%. Same read-out and setting: next, `Cc1cc(SCc2ccnc(-c3ccc(F)cc3)n2)ccc1OCC(=O)O` [example 8, {2-methyl-4-[2-(4-fluorophenyl)-pyrimidin-4-yl-methylthio]-phenoxy}-acetic acid]: 135.46%. Turning to `O=C(O)CCc1ccc(OCc2ccnc(-c3ccc(F)cc3)n2)cc1` [Example 1, 3-{4-[2-(4-fluorophenyl)-pyrimidin-4-yl-methoxy]-phenyl}-propionic acid], the melting point was 167.2 to 168 °C. `O=C(O)CCc1ccc(OCc2ccnc(-c3ccc(Br)cc3)n2)cc1` [Example 3, 3-{4-[2-(4-bromophenyl)-pyrimidin-4-yl-methoxy]-phenyl}-propionic acid] returned a melting point of 168 to 168.8 °C. As to `Cc1cc(SCc2ccnc(-c3ccc(C(F)(F)F)cc3)n2)ccc1OCC(=O)O` [example 7, {2-methyl-4-[2-(4-trifluoromethylphenyl)-pyrimidin-4-yl-methylthio]phenoxy}-acetic acid], the melting point fell in the range of 159.3 to 160.2 °C. On human PPARδ, the “Activation ability % (Activation of part of compounds for PPARδ)” value came to 94.86%. For the compound `Cc1cc(SCc2ccnc(-c3ccc(Cl)cc3)n2)ccc1OC(C)(C)C(=O)O` [example 17, 2-methyl-2-{2-methyl-4-[2-(4-chlorophenyl)-pyrimidin-4-yl-methylthio]-phenoxy}-propionic acid], on human PPARδ, the “Activation ability % (Activation of part of compounds for PPARδ)” value is 119.51%.
